Assay results published in the NIST ThermoML archive (doi:10.1021/je301219c).
Numbers after ± are expanded uncertainties.

Settings: Liquid, Ebulliometric method (Recirculating still)

Structure (SMILES): CO [methanol]
- vapor or sublimation pressure (324.92 K): 60 ± 0.87 kPa
- vapor or sublimation pressure (337.82 K): 101.3 ± 1.6 kPa

Structure (SMILES): CCN(CC)CCO [(diethylamino)ethanol]
- vapor or sublimation pressure (418.34 K): 60 ± 1.2 kPa
- vapor or sublimation pressure (435.94 K): 101.3 ± 2.1 kPa

Structure (SMILES): CCNCC [diethylamine]
- vapor or sublimation pressure (313.64 K): 60 ± 1 kPa
- vapor or sublimation pressure (328.67 K): 101.3 ± 1.8 kPa
